Source: patent US9056886B2, “Guanosine-rich modified oligonucleotides and antiproliferative activity thereof” (APTABIO THERAPEUTICS INC., priority 2009, dated 2015)
[5FU] = 5-fluorouracil base (5-fluoro-2'-deoxyuridine unit); [GEM] = 2',2'-difluoro-2'-deoxycytidine (gemcitabine); [5FC] = 5-fluoro-2'-deoxycytidine; d = 2'-deoxy (DNA)

How the values were obtained:
[1] = system: MCF7-DX (Breast Cancer Cells), a drug-resistance cell line; assay: Cell apoptosis (XTT method) in MCF7-DX cells; type: cell-based
Procedure: [Worded in the source for another cell line; this cell line is reported under the same test.] (§1) Each oligonucleotide was diluted in 10 mM Tris-HCl (pH 7.4) to a final concentration of 100 μM. The diluted solution was placed at 94° C. for 5 minutes and then quickly placed them on ice and left therein for 5 minutes. The resultant was added with 2M KCl to a final concentration of 50 mM, left at 60° C. for 3 hours and then slowly cooled down to room temperature.
(§2) One day before the experiment, 190 μL of culture, wherein PC-3 cell line(prostate cancer cell) was suspended at a concentration of 10^3-10^4/mL, was inoculated respectively into each well of a 96 well plate. The next day, 10 μL of the oligonucleotide solution prepared in Example 1 was added and cultured for six days. Six days after the inoculation, cell apoptosis rate measured by means of XTT method [JBC 1999, 26369].
As a result, it was confirmed that the cell apoptosis rate of APT-2001, APT-2002 and APT-2003 (the novel modified oligonucleotides of the present invention), was 3-10 times higher than those of APT-4001 (positive control) and APT-4002 (negative control) as measured in terms of IC50 or IC90 (FIG. 2). […] In addition, the cell apoptotic activity of the oligonucleotides, prepared according to the present invention over the K562 CML (chronic myeloid leukemia), MV-4-11 AML (acute leukemia) cells, were also verified.

[2] = system: PC-3 cell line (prostate cancer cell); assay: Cell apoptosis (XTT method) in PC-3 cells; type: cell-based; settings: PC3 (Prostate Cancer Cells), cultured six days, XTT
Procedure: as §1, §2

Row | Substance | IC50 [1] [nM] | IC50 [2] [nM]
1 | APT-2042: GGNGGNGGNGGTTGTGGNGGNGGNGG (SEQ. ID. NO. 32); N=5-F-deoxyuridine, G=2-deoxy-guanosine, H=thymidine (5-F-deoxyuridine modified nucleosides) | 500 | 
2 | APT-2040: GGTGGTGGTGGTTNTGGTGGTGGTGG (SEQ. ID. NO. 30); N=5-F-deoxyuridine, G=2-deoxy-guanosine, H=thymidine (DNA GGTGGTGGTGGTTUTGGTGGTGGTGG; DNA, [5FU] at 14, backbone not given here) | > 1000 | 
3 | APT-2032: GGTGGTGGTTNTGGTGGTGG (SEQ. ID. NO. 24); N=5-F-deoxyuridine, G=2-deoxy-guanosine, H=thymidine (DNA GGTGGTGGTTUTGGTGGTGG; aptamer; DNA, [5FU] at 11, backbone not given here) | 3600 | > 10000
4 | APT-2066: GGTGGTGGTGGTNNTGGTGGTGGTGG (SEQ. ID. NO. 29); N=2′,2′-difluoro deoxycytidine, G=2-deoxy-guanosine, H=thymidine (DNA GGTGGTGGTGGTCCTGGTGGTGGTGG; sugars from the 5' end d12 [GEM]2 d12, backbone not given here; G-quadruplex forming oligonucleotide) | 10 | 34
5 | APT-2067: GGTGGTGGTGGTNGTGGTGGTGGTGG (SEQ. ID. NO. 43); N=2′,2′-difluoro deoxycytidine, G=2-deoxy-guanosine, H=thymidine (DNA GGTGGTGGTGGTCGTGGTGGTGGTGG; sugars from the 5' end d12 [GEM]1 d13, backbone not given here; G-quadruplex forming oligonucleotide) | 24 | 
6 | APT-2061: GGTGGTGGTNGTGGTGGTGG (SEQ. ID. NO. 38); N=2′,2′-difluoro deoxycytidine, G=2-deoxy-guanosine, H=thymidine (DNA GGTGGTGGTCGTGGTGGTGG; aptamer; sugars from the 5' end d9 [GEM]1 d10, backbone not given here; G-quadruplex forming oligonucleotide) | 22 | 41
7 | APT-2072: GGTGGTGGTTNTGGTGGTGGN (SEQ. ID. NO. 47); N=2′,2′-difluoro deoxycytidine, G=2-deoxy-guanosine, H=thymidine (2',2'-difluoro deoxycytidine modified nucleosides, chemistry not fully specified) |  | 12
8 | APT-2034: GGTGGTGGTNNNGGTGGTGG (SEQ. ID. NO. 26); N=5-F-deoxyuridine, G=2-deoxy-guanosine, H=thymidine (DNA GGTGGTGGTUUUGGTGGTGG; DNA, [5FU] at 10, 11, 12, backbone not given here) | 1200 | > 10000
9 | APT-2013: NNNGGNGGNGGNGGTTGTGGNGGNGGNGG (SEQ. ID. NO. 10); N=5-F-deoxyuridine, G=2-deoxy-guanosine, H=thymidine (DNA UUUGGUGGUGGUGGTTGTGGUGGUGGUGG; DNA, [5FU] at 1, 2, 3, 6, 9, 12, 21, 24, 27, backbone not given here) | 660 | 90
10 | APT-2023: GGNGGTGGNGG (SEQ. ID. NO. 21); N=5-F-deoxyuridine, G=2-deoxy-guanosine, H=thymidine (DNA GGUGGTGGUGG; DNA, [5FU] at 3, 9, backbone not given here) | 1860 | 260
11 | APT-2068: GGTGGTGGTGGTTGNGGTGGTGGTGG (SEQ. ID. NO. 31); N=2′,2′-difluoro deoxycytidine, G=2-deoxy-guanosine, H=thymidine (2',2'-difluoro deoxycytidine modified nucleosides, chemistry not fully specified) | 23 | 
12 | APT-2070: GGNGGTGGTGGTTGTGGTGGTGGTGG (SEQ. ID. NO. 45); N=2′,2′-difluoro deoxycytidine, G=2-deoxy-guanosine, H=thymidine (2',2'-difluoro deoxycytidine modified nucleosides, chemistry not fully specified) | 13 | 24
13 | APT-2060: GGTGGTGGNTGTGGTGGTGG (SEQ. ID. NO. 37); N=2′,2′-difluoro deoxycytidine, G=2-deoxy-guanosine, H=thymidine (aptamer; listed as DNA, chemistry not fully specified) | 23 | 40
14 | APT-2063: GGTGGTGGTNGNGGTGGTGG (SEQ. ID. NO. 40); N=2′,2′-difluoro deoxycytidine, G=2-deoxy-guanosine, H=thymidine (aptamer; listed as DNA, chemistry not fully specified) | 8 | 22
15 | APT-2059: GGTGGTGGTNNTGGTGGTGG (SEQ. ID. NO. 23); N=2′,2′-difluoro deoxycytidine, G=2-deoxy-guanosine, H=thymidine (2',2'-difluoro deoxycytidine modified nucleosides, chemistry not fully specified) | 4 | 15
16 | APT-2054: GGTGGTGGTGGTTNTGGTGGTGGTGG (SEQ. ID. NO. 30); N=2′,2′-difluoro deoxycytidine, G=2-deoxy-guanosine, H=thymidine (DNA GGTGGTGGTGGTTCTGGTGGTGGTGG; sugars from the 5' end d13 [GEM]1 d12, backbone not given here; G-quadruplex forming oligonucleotide) | < 300 | < 300
17 | APT-2020: GGTGGTGGNNNNGGTGGTGG (SEQ. ID. NO. 18); N=5-F-deoxyuridine, G=2-deoxy-guanosine, H=thymidine (DNA GGTGGTGGUUUUGGTGGTGG; DNA, [5FU] at 9, 10, 11, 12, backbone not given here) | 890 | 160
18 | APT-2043: GGNGGNGGTGGTTGTGGTGGNGGNGG (SEQ. ID. NO. 33); N=5-F-deoxyuridine, G=2-deoxy-guanosine, H=thymidine (5-F-deoxyuridine modified nucleosides) | 600 | 
19 | APT-2069: GGTGGTGGTGGTNGNGGTGGTGGTGG (SEQ. ID. NO. 44); N=2′,2′-difluoro deoxycytidine, G=2-deoxy-guanosine, H=thymidine (2',2'-difluoro deoxycytidine modified nucleosides, chemistry not fully specified) | 10 | 
20 | APT-2044: GGNGGTGGTGGTTGTGGTGGTGGNGG (SEQ. ID. NO. 34); N=5-F-deoxycytidine, G=2-deoxy-guanosine, H=thymidine (DNA GGCGGTGGTGGTTGTGGTGGTGGCGG; DNA, [5FC] at 3, 24, backbone not given here; G-quadruplex forming oligonucleotide) | > 1000 | 
21 | APT-2071: GGTGGNGGTGGTTGTGGTGGNGGTGG (SEQ. ID. NO. 46); N=2′,2′-difluoro deoxycytidine, G=2-deoxy-guanosine, H=thymidine (2',2'-difluoro deoxycytidine modified nucleosides, chemistry not fully specified) | 15 | 
